The source made the active and inactive calls.
Tests used:
[1] = target: T1, Carboxy-terminal domain RNA polymerase II polypeptide A small phosphatase 1 (Homo sapiens, UniProt Q9GZU7); experiment: CTDSP1 inhibitors, concentration-response, biochemical, absorbance readout, ultra-high-throughput screen actives (AID 540297); assay type: functional
T1 sequence (Q9GZU7 whole entry): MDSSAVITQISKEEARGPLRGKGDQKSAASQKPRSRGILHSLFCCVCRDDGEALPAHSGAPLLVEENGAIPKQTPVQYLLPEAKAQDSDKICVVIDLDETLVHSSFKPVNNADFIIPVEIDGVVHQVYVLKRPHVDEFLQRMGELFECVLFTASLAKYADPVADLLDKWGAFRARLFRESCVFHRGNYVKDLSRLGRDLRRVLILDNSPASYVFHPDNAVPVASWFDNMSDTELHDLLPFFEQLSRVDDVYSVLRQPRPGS

[2] = system: HEK293; experiment: inhibition of NOD1-driven NF-kB reporter – cell-based, luminescence, uHTS, primary screen (AID 1578); assay type: functional; settings: Homo sapiens
[3] = system: BJ; experiment: BJ-TERT fibroblast viability loss – cell-based, RAS-independent, luminescence, dose response (AID 1933); assay type: functional; settings: Homo sapiens
[4] = system: HEK293; experiment: cells; assay type: functional, cell-based; settings: Homo sapiens
[5] = system: BJ; experiment: cells; assay type: functional, cell-based; settings: Homo sapiens
[6] = system: HEK293; experiment: cells; assay type: functional, cell-based; settings: Homo sapiens; remark: listed apart in the source
[7] = system: HEK293; experiment: NOD2 signaling inhibitors in MDP-stimulated cells, cell-based, uHTS, luminescence (AID 2001); assay type: functional; settings: Homo sapiens
[8] = microbe, parasite or virus in culture; assay type: functional; settings: Mycobacterium tuberculosis
[9] = system: BJ; experiment: BJ-TERT-LT-ST fibroblast viability loss – cell-based, RAS-independent, luminescence, dose response (AID 1935); assay type: functional; settings: Homo sapiens;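 also: BJ fibroblasts immortalized with TERT plus LT and ST oncogenes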
[10] = DRD fibroblast viability loss – cell-based, non-viral oncogenic, luminescence, dose response (AID 1934); assay type: functional; settings: Homo sapiens
[11] = target: DNA dC->dU-editing enzyme APOBEC-3G (Homo sapiens, UniProt Q9HC16); experiment: Dose Response confirmation of small molecule APOBEC3G DNA Deaminase Inhibitors via a fluorescence-based single-stranded DNA deaminase assay. [Related pubchem assays (depositor defined):AID493012, AID493028]; assay type: functional
Chain of DNA dC->dU-editing enzyme APOBEC-3G (Q9HC16 whole entry): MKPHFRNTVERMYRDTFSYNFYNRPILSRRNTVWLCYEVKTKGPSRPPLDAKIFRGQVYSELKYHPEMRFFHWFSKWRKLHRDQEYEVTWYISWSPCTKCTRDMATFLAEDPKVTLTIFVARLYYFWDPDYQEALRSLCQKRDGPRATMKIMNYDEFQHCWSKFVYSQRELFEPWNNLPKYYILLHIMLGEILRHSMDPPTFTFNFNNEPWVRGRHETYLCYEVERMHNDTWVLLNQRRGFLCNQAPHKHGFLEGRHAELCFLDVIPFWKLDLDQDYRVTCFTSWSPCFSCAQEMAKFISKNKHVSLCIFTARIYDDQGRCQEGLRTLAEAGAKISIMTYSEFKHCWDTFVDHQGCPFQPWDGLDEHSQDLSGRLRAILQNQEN

[12] = A cytotoxicity screen of small molecule inhibitors of the PhoP region in Salmonella typhi identified in the primary screen. [Related pubchem assays: 1850, 1864, 1985 ]; assay type: functional
[13] = target: T2, Corticotropin-releasing factor receptor 2/Corticotropin-releasing factor-binding protein (Homo sapiens, UniProt P24387+Q13324); experiment: Dose Response confirmation of uHTS hits for small molecule antagonists of the CRF-binding protein and CRF-R2 receptor complex.; assay type: functional; settings: read-out: IC50_Mean
T2 sequence (Q13324 whole entry): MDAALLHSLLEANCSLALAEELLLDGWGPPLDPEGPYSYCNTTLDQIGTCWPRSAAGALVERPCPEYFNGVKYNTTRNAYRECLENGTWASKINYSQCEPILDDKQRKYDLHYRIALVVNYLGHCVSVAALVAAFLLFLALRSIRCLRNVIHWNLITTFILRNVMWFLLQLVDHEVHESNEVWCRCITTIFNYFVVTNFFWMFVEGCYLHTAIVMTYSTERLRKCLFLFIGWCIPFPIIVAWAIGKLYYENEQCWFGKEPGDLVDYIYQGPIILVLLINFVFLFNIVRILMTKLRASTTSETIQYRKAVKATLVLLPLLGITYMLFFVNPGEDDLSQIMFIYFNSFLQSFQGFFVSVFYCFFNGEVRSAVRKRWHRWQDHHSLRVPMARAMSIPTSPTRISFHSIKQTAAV
T2 sequence (P24387 whole entry): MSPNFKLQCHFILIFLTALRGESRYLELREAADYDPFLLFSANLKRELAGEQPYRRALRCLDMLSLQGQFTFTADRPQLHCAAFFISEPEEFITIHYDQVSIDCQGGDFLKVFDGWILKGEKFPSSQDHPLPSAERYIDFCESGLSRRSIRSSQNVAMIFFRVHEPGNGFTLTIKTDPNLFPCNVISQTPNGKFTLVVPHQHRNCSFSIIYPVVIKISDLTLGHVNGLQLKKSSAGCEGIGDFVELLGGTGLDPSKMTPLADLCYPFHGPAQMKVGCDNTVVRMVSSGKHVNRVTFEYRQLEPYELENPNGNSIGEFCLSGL

[14] = target: T2, Corticotropin-releasing factor receptor 2/Corticotropin-releasing factor-binding protein; experiment: activators of CRF receptor 2 with binding protein – uHTS hits, confirmation (AID 602473); assay type: functional; settings: read-out: EC50_Mean
[15] = blockers of CRF-binding protein–CRF-R2 complex – cell-based, uHTS hits, 384-well, dose response (AID 651639); assay type: functional, Homo sapiens; settings: read-out: IC50_Mean
[16] = target: T3, Short transient receptor potential channel 4 (Mus musculus, UniProt Q9QUQ5); experiment: block of DAMGO-driven TRPC4 calcium entry – cell-based, HEK293 TRPC4/mu-opioid, Fluo-4 calcium, dose response (AID 434942); assay type: functional;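 also: potency of inhibitors blocking the TRPC4 calcium response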
T3 sequence (Q9QUQ5 whole entry): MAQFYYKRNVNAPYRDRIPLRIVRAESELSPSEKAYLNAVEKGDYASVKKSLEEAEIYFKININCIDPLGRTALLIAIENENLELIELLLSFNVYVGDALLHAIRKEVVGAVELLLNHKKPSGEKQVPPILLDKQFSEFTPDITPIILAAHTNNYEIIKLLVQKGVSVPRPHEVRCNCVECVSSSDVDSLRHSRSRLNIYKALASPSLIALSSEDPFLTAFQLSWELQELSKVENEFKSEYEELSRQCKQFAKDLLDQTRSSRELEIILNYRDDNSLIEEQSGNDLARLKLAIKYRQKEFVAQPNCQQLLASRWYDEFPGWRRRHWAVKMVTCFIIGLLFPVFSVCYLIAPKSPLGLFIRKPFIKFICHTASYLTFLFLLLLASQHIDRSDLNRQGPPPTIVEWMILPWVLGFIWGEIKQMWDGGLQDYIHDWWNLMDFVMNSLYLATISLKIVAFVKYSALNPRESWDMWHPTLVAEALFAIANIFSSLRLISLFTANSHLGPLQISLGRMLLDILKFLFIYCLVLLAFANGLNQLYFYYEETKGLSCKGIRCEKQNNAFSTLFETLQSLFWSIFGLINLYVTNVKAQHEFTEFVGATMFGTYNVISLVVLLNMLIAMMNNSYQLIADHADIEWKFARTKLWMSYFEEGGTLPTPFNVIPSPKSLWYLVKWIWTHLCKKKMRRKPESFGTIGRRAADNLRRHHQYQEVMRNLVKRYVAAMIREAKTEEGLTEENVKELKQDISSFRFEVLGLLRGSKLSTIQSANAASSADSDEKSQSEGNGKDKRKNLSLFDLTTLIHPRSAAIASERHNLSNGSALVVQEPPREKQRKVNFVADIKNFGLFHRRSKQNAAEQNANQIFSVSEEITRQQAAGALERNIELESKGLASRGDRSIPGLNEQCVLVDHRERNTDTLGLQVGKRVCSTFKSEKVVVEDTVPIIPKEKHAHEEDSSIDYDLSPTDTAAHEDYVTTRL

[17] = reduction of Shn3 3'UTR-driven luciferase in osteoblasts – cell-based, Clone20 osteoblasts, firefly luciferase, cherry-picked, dose response (AID 624132); assay type: functional;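 also: firefly luciferase luminescence from reporter carrying the Shn3 3'UTR in osteoblasts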
[18] = non-specific 3'UTR reporter inhibition in Clone20-Shn3RL – cell-based, Renilla luciferase, cherry-picked, counter-screen for Shn3 inhibitor project, dose response (AID 624133); assay type: functional
[19] = P. falciparum Dd2 growth inhibitors, dose response, SYBR Green, cherry-picked samples (AID 1159567); assay type: functional, cell-based
[20] = Trypanosoma cruzi growth suppression in host cells – NIH3T3 host cells, beta-gal luminescence, confirmation (AID 2044); assay type: functional, cell-based;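 also: intracellular parasites grown in NIH/3T3 mouse fibroblasts as host cells; luminescent beta-galactosidase reporter signal from transgenic T. cruzi replicating inside host cells; inhibitors lower the luminescence signal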
[21] = NIH3T3 cell viability loss – ATP luminescence, mouse fibroblasts, counter-screen, dose response (AID 2010); assay type: functional, cell-based; settings: NIH3T3;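 also: cells exposed to compound for about 90 hours before reading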
[22] = target: Cytochrome P450 2C19 (Homo sapiens, UniProt P33261); experiment: Cytochrome panel assay with activity outcomes. Panel member name: p450-cyp2c19 Compounds with AC50 equal or less than 10 uM are considered active; assay type: functional; settings: read-out: AC50
Chain of Cytochrome P450 2C19 (P33261 whole entry): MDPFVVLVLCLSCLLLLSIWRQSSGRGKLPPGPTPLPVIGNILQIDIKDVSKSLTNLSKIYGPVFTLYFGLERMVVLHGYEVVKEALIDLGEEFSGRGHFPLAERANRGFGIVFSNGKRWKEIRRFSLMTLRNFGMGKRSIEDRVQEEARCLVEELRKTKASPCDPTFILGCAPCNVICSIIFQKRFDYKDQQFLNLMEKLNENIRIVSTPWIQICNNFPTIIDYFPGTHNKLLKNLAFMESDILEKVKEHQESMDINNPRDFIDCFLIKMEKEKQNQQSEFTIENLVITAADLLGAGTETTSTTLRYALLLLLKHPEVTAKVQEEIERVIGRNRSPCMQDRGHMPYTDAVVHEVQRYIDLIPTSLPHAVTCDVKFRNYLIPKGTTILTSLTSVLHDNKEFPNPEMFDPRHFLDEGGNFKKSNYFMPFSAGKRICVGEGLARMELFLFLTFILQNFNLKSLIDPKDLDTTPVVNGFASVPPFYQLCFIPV

[23] = target: Cytochrome P450 2C9 (Homo sapiens, UniProt P11712)
Chain of Cytochrome P450 2C9 (P11712 whole entry): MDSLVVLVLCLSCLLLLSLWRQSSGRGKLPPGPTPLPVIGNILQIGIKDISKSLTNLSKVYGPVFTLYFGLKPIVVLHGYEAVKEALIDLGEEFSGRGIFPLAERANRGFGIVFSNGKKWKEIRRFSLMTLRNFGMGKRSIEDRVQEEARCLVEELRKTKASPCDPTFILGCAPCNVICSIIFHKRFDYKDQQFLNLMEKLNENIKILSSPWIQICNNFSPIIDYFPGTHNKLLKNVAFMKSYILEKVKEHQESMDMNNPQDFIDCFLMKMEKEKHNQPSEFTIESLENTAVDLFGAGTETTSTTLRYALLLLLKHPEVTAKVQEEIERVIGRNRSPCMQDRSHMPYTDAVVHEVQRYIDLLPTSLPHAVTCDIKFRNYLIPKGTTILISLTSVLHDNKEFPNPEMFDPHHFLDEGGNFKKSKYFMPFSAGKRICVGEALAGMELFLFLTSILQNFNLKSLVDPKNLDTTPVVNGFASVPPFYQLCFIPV

SMILES: Cc1cccc(C)c1NC(=O)CN(C)C(=O)c1ccc2nc[nH]c2c1
- IC50 [1]: 28 µM (active)

SMILES: Cc1ccc(C)c(OCCn2ccnc2)c1
- IC50 [1]: 5.06 µM (active)

SMILES: CCCc1cc(NC(=O)CCl)n(-c2ccccc2)n1
- EC50 [2]: 14.3 µM (active)
- EC50 [3]: 29.7 µM (active)
- IC50 [4]: 4.55 µM (active)
- EC50 [5]: > 150 µM (not active)
- IC50 [6]: > 20 µM (inactive)
- IC50 [7]: 11.1 µM (inactive)
- CC50 [8]: 17.4 µM (active)
- EC50 [9]: > 150 µM (not active)
- EC50 [10]: > 150 µM (not active)

SMILES: CCOc1ccc(C(=S)NC2CCCCC2)cc1OCC
- IC50 [11]: 55.7 µM (active)

SMILES: Cc1cc(NC(=O)c2ccccc2)sc1C
- EC50 [12]: > 50 µM (active)

SMILES: O=[N+]([O-])c1ccc2nc(S)sc2c1
- IC50 [13]: 7.04 µM (active)
- EC50 [14]: 27.1 µM (active)
- IC50 [15]: > 20 µM (inactive)

SMILES: O=C(CSc1nc(=O)n(CCN2CCOCC2)c2c1CCC2)Nc1ccc(OC(F)(F)F)cc1
- EC50 [16]: 7.5 µM (active)

SMILES: CC[C@]12c3[nH]c4cc(CCC(=O)N(C)C)ccc4c3CCN1C(=O)[C@@H](CC(=O)NC/C=C(\C)CCC=C(C)C)C[C@@H]2C(=O)N1CCN(C(=O)c2ccco2)CC1
- AC50 [17]: 1.68 µM (active)
- AC50 [18]: 1.72 µM (active)

SMILES: Cc1noc(C)c1COC(=O)[C@@H](NC(=O)c1ccccc1)C(C)C
- AC50 [18]: 52.5 µM (active)

SMILES: C[C@H](CO)N1C[C@H](C)[C@H](CN(C)C(=O)Nc2ccc(-c3ccccc3)cc2)OCc2ccccc2-c2c(n(C)c3ccccc23)C1=O
- AC50 [19]: 4.77 µM (active)

SMILES: CCOC(=O)N/N=C\c1ccc([N+](=O)[O-])o1
- EC50 [12]: > 50 µM (active)
- EC50 [20]: 0.542 µM (active)
- EC50 [21]: > 30 µM (not active)
- AC50 [22]: 25.1 µM (inconclusive)

SMILES: CN1c2ccc(C#Cc3cccnc3)cc2[C@@H]2[C@@H](CCN2S(=O)(=O)c2ccccc2F)[C@@H]1CO
- AC50 [19]: 3.87 µM (active)

SMILES: CCC(=O)N1CCC2(CC1)CN(Cc1cc(F)ccc1F)[C@@H](CO)c1[nH]c3cc(OC)ccc3c12
- AC50 [19]: 4.19 µM (active)

SMILES: Clc1cnc(Oc2ccc(Oc3ncc(Cl)cc3Cl)cc2)c(Cl)c1
- IC50 [13]: < 0.368 µM (active)
- EC50 [14]: > 53 µM (inactive)
- IC50 [15]: 18 µM (active)
- AC50 [23]: inconclusive

Source: ChEMBL document CHEMBL1201862, “PubChem BioAssay data set” (2004)
